“Also recorded” adds a separate entry of the source.
Experiments:
[1] = test system: Stearoyl-CoA Desaturase 1 (SCD1); experiment: Liver SCD1 activity, SCD1 mRNA and LCFA-CoA measurements; assay type: in vivo, rat
Procedure: (§1) Treatment with SCD1 ASO. Five and two days before the lipoprotein secretion studies, rats received a single intra-peritoneal injection of either SCD1 or scrambled (SCR) ASO (100 mg/kg of body weight). […] In a separate set of studies, rats received intra-portal injection of either SCD1 or SCR ASO (40 mg/kg of body weight) (Gutierrez-Juarez et al., 2006) three days before the lipoprotein secretion studies.
Liver LCFA-CoA measurements. The liver was sampled and the LCFA-CoAs were extracted from the liver and measured by high-performance liquid chromatography (HPLC) as previously described (Lam et al., 2005c).
Stearoyl-CoA Desaturase 1 (SCD1) activity. CD1 activity assays were performed essentially as described (Cohen et al., 2002) using 1-[^14C]-stearoyl-CoA as a substrate. At the end of the reaction incubation long-chain acyl CoAs (LC Acyl-CoAs) were extracted and fractionated by reverse-phase HPLC as previously reported (Lam et al., 2005c). Chromatographically resolved stearoyl CoA (C18:0) and oleyl-CoA (C18:1) peaks were collected and counted in a β-scintillation counter. Protein was assayed by the bicinchoninic acid (BCA) method using a commercially available kit (Pierce Biotechnology, Rockford, Ill.) according to the manufacturer's instructions.
Gene expression. Stearoyl-CoA Desaturasel (SCD1) mRNA was measured by quantitative real-time PCR. Briefly, total RNA was extracted from either liver or fat tissue using the Trizol reagent (Invitrogen, Carlsbad, Calif.) according to the manufacturer instructions. cDNA was then synthesized from 2 μg of total RNA using the Superscript® III First-Strand kit TM? (Invitrogen, Carlsbad, Calif.). Samples of RNA in which the reverse transcriptase was omitted (no RT controls) were also included. The cDNA and no RT controls were diluted 1:20 with PCR grade water and 2 μl from each sample was used for PCR in a total volume of 20 μl. The FastStart DNA Master SYBR Green I kit (Roche Applied Science, Indianapolis, Ind.) and a LightCycler® 2 instrument (Roche Applied Science, Indianapolis, Ind.) were used in all experiments. Either 18S mRNA expression was routinely measured for normalization purposes. The primer sequences used were as follows: 5′-[…]-3′ and 5′-[…]-3′ for Scd1; and 5′-[…]-3′ and 5′-[…]-3′ for ribosomal 18S. The mRNA copy number was calculated from standard curves obtained using cloned target templates (plasmid DNA) of known copy number for each gene of interest.

hepatic VLDL secretion = experiment: Lipoprotein (VLDL) secretion studies with tyloxapol; NMR particle size; assay type: in vivo, rat
Procedure: Lipoproteins secretion and particles concentration and size measurements. Tyloxapol (600 mg/kg; ˜1 min) was intravenously injected to inhibit endogenous lipoprotein lipase. This high dose of tyloxapol ensured complete inhibition of triglyceride clearance during VLDL secretion studies. Plasma samples were taken every 30 min for triglycerides analysis and for lipoprotein profiling. Plasma VLDL particles concentration and size were determined by nuclear magnetic resonance spectroscopy (lipoprofile-II test) at Liposcience as previously described (Otvos et al., 1991; 1992). This NMR lipoprofile-II test is based on the assumption that each plasma lipoprotein particle of a particular size gives its own characteristic lipid NMR signal. The intensity of the signal is also in proportion to the concentration of the particle. The diameter range for large, medium and small VLDL is >60 nm, 35-60 nm, and 27-35 nm, respectively.
Selective hepatic branch vagotomy. The surgeries were performed as described (Lam et al., 2005c).
as §1
Portal oleate infusion. Chronic portal catheter was implanted and 7 days were allowed for rat recovery. Oleic acid (45 mM; dissolved in 45% HBP) was infused at a rate of 40 μl/h for 2.5 h (1 h before the 90 min lipoprotein secretion studies). This dose enabled the reconstitution of hepatic oleyl-CoA levels back to normal during portal SCD1 ASO (FIG. 11c) or ICV glucose studies (FIG. 11d).

conscious rats [2] = experiment: ICV glucose or lactate infusion with pancreatic basal insulin clamp: plasma glucose and liver glucose production; assay type: in vivo, rat; details: for effect of ICV co-infused LDH inhibitor or KATP blocker on the effects of ICV glucose or lactate on plasma glucose and GP: ICV co-infusion
Text: We hypothesize that the hypothalamic sensing of glucose-derived pyruvate is a novel regulator of endogenous glucose production (GP). […] We propose that an increase in neuronal pyruvate levels is a hypothalamic signal of nutrient availability.
Long chain fatty acids in the brain decrease glucose production (GP) by the liver via activation of hypothalamus ATP-sensitive (KATP) channels. Here we tested whether (A) direct administration of glucose in the third cerebral ventricle can alter glucose production by the liver, and (B) whether this effect requires its metabolism in the TCA cycle.

conscious rats [3] = experiment: Circulating lactate infusion with central LDH inhibitor or KATP blocker: glucose kinetics during pancreatic clamps
male Sprague-Dawley rats = experiment: ICV infusion: plasma triglycerides and metabolites under basal and pancreatic clamp conditions; assay type: in vivo, rat
Text: Animal preparation. We studied 10-week-old male Sprague-Dawley rats. Rats underwent stereotaxic surgery to indwell single catheters in the third cerebral ventricle {intracerebroventricular (ICV)(Obici et al., 2001) or bilateral catheters into the mediobasal hypothalamus (Lam et al., 2005c). One week later, we placed indwelling catheters in the internal jugular vein and carotid artery for sampling and infusion during the in vivo experiments (Obici et al., 2001). Recovery from surgery was monitored by measuring daily food intake and weight gain for 4-5 days after surgery.
(§2) Infusion protocols. The in vivo infusion experiments lasted a total of 360 min, and the experiments were carried out in rats that had their food removed ˜5 h before the experiments. Thus, at the time of the experiment, the rats are in post-absorptive state since their stomach should be completely emptied by 5 h fasting. […] This ICV glucose protocol physiologically elevate hypothalamic glucose concentration by ˜70% as previously described (Lam et al., 2005b) and is similar to that induced by a doubling of the circulating glucose levels (Lam et al., 2005b). During the ICV infusions, we monitored the plasma metabolite levels under pre-infused (0 min), basal (180-240 min) and pancreatic clamp (300-360 min) conditions. […] A basal insulin-pancreatic clamp was performed in the final 2 h (240-360 min) of the study as previously described (Lam et al., 2005b). In brief, a continuous infusion of insulin (1 mU/kg.min) and somatostatin (3 μg/kg.min) was administered, and a variable infusion of a 25% glucose solution was started and periodically adjusted to clamp and maintain the plasma glucose concentration at ˜8 mM. […] To examine the time-dependent effects of ICY glucose on plasma triglycerides, ICY (5 μl/h) 2 mM D-glucose or mannitol was administrated for 210 min and plasma triglyceride levels were monitored at 0, 20, 60, 120, 180, 210 min. […] Plasma triglycerides were monitored under basal, pancreatic clamp and tyloxapol-treated conditions. At the end of the infusion experiments, rats were anesthetized and tissue samples were freeze-clamped in situ with aluminum tongs pre-cooled in liquid nitrogen. All tissue samples were stored at −80° C. for subsequent analysis.
Biochemical analyses. Plasma glucose concentrations were measured by the glucose oxidase method (Glucose Analyzer II, Beckman Instruments, Inc., Fullerton, Calif.). […] FFA concentrations were determined by an enzyme assay in accordance with the manufacturer's specifications (Waco Pure Chemical Industries. Osaka. Japan). Plasma insulin concentrations (with rat and porcine insulin standards) were measured by radioimmunoassay (RIA). Plasma adiponectin concentrations were measured by RIA (Linco Inc., Austin, Tex., USA). Liver triglycerides were measured as described (Muse et al., 2004).
Calculations. Statistical analysis was done by unpaired Student's t test or analysis of variance as appropriate. Data are presented as means±SEM. All values were collapsed into a single value for each animal prior to the calculation of mean. The time period 180-240 min was averaged for the basal and the time period 300-360 min was averaged for the clamp conditions.

mediobasal hypothalamus = experiment: Intrahypothalamic (IH) infusion of glucose or DCA with pancreatic basal insulin clamp; assay type: in vivo, rat; details: IH, with glucose
Text: FIG. 3 is a diagram of experimental protocols (Panel (a)) and graphs of results of those experiments utilizing intrahypothalamic (IH) infusions of glucose.
FIG. 4 is a schematic and graphs of experimental results showing the effect of dichloroacetate (DCA), an inhibitor of pyruvate dehydrogenase kinase, having the effect of activating pyruvate dehydrogenase (PDH). The schematic of Panel (a) illustrates the PDH activation effect of DCA in the context of glucose metabolism, the TCA cycle, and nervous system cells.
We have localized the effect of glucose on liver glucose production to the mediobasal hypothalamus. This was accomplished using bilateral intraparenchymal (rather than ICY) delivery of both glucose and the KATP blocker GLI.

conscious rats [4] = experiment: Intravenous lactate infusion with or without MBH oxamate: plasma TG and hepatic TG-VLDL production; assay type: in vivo, rat; details: oxamate within the mediobasal hypothalamus prior to the i.v. lactate infusion
Procedure: as §2
VLDL are decreased in the hours following an acute bout of exercise. […] To investigate the mechanism by which lactate lowers plasma TG levels, the rate of production of hepatic TG-enriched VLDL was measured.

Q: For `CCCCCCCC/C=C\CCCCCCCC(=O)O` [oleic acid], which “hepatic oleyl-CoA” value ([1]; portal infusion of oleic acid during ICV glucose or SCD1 deficiency) is on record?
A: restores hepatic oleyl-CoA to control levels

Q: What about the “effect of portal oleic acid infusion on VLDL secretion” value (hepatic VLDL secretion; portal infusion during ICV glucose or SCD1 ASO) of the same molecule?
A: negates the effects of both central glucose and SCD1 deficiency on VLDL secretion; also recorded: sufficient to negate the effect of SCD1 deficiency on VLDL secretion

Q: Which “effect of ICV co-infused inhibitor on the decrease of hepatic SCD1 mRNA and activity by ICV glucose” value ([1]; ICV co-infusion with glucose) does the source give for `COc1ccc(Cl)cc1C(=O)NCCc1ccc(S(=O)(=O)NC(=O)NC2CCCCC2)cc1` [glibenclamide, reference compound] here?
A: abolished

Q: And the “effect of central co-infusion of inhibitor on suppression of VLDL-triglyceride secretion by ICV glucose” value (hepatic VLDL secretion; central co-infusion with glucose)?
A: abolished

Q: And the “effect of ICV co-infused LDH inhibitor or KATP blocker on the effects of ICV glucose or lactate on plasma glucose and GP” value (conscious rats [2])?
A: inhibited

Q: And the “effect of ICV co-infused LDH inhibitor or KATP blocker on the effects of ICV glucose or lactate on plasma glucose and GP” value (conscious rats [2]; listed as GLI)?
A: inhibited

Q: What about the “effect of ICV co-infused LDH inhibitor or KATP blocker on the effects of ICV glucose or lactate on plasma glucose and GP” value (conscious rats [2]; listed as sulfonylurea) of the same molecule?
A: completely abolished the effects of ICV glucose and lactate on plasma glucose and GP

Q: And the “glucose infusion rate to maintain euglycemia” value (conscious rats [3]; ICV inhibitor infused with IV lactate)?
A: decreased glucose infusion rate

Q: And the glucose production (conscious rats [3]; central inhibitor infused with circulating lactate infusion)?
A: increase in glucose production

Q: And the “effect of ICV co-infused inhibitor on the plasma triglyceride-lowering effects of ICV glucose or lactate” value (male Sprague-Dawley rats; ICV co-infusion (oxamate 50 mM, glibenclamide 100 μM))?
A: negated the effects of both ICV glucose and lactate on plasma triglycerides; also recorded: abolishes the plasma triglyceride-lowering effects of glucose; also recorded: abolished the plasma triglyceride-lowering effects of lactate

Q: And the “plasma triglyceride levels, inhibitor per se” value (male Sprague-Dawley rats; ICV inhibitor alone)?
A: did not per se alter the levels of plasma triglycerides

Q: And the “effect of KATP blocker on the effects of IH glucose” value (mediobasal hypothalamus)?
A: prevented

Q: How did the “GP (glucose production)” value (conscious rats [2]; ICV oxamate (50 mM) with ICV glucose) turn out when `NC(=O)C(=O)O` [oxamate, reference compound] was run?
A: 11.9 ± 1.0 mg/kg/min

Q: What about the GP (glucose production) (conscious rats [2]; ICV oxamate with ICV lactate) of the same molecule?
A: 11.3 ± 0.6 mg/kg/min

Q: What about the plasma glucose (conscious rats [2]; ICV oxamate with ICV lactate) of the same molecule?
A: 144 ± 1 mg/dL

Q: What about the “hepatic TG-enriched VLDL production” value (conscious rats [4]) of the same molecule?
A: 0.056 ± 0.002 mM/min

Q: And the “plasma TG levels” value (conscious rats [4])?
A: 0.44 ± 0.12 mM
